In PMC7721954, “Preclinical comparison of four [^18F, ^natGa]rhPSMA-7 isomers: influence of the stereoconfiguration on pharmacokinetics” (EJNMMI Research, 2020):

Experiments:
PSMA = target: T1, PSMA (Homo sapiens, UniProt Q04609); test: Competitive binding (IC50) on LNCaP cells vs ([125I]I-BA)KuE; settings: ratio of IC50 values
T1 construct: host or cells: LNCaP cells
Method: (§1) Competitive binding studies were determined on LNCaP cells (1.5 × 10^5 cells in 1 mL/well) after incubation at 4 °C for 1 h, using (((S)-1-carboxy-5-(4-([^125I]iodo)benzamido)pentyl)carbamoyl)-L-glutamic acid (([^125I]I-BA)KuE; 0.2 nM/well) as reference radioligand (n = 5–9). Internalization studies of the radiolabeled ligands (0.5 nM/well) were performed on LNCaP cells (1.25 × 10^5 cells in 1 mL/well) at 37 °C for 1 h and accompanied by ([^125I]I-BA)KuE (0.2 nM/well), as reference. Data were corrected for non-specific binding and normalized to the specific internalization observed for the reference (n = 3–6). A detailed description of the experimental procedures was previously published.

LNCaP cells = test: Internalization into LNCaP cells relative to ([125I]I-BA)KuE; type: cell-based; settings: 1 h, 37 °C, percentage of reference ligand ([125I]I-BA)KuE, n = 3-6
Method: as §1

LNCaP tumor-bearing mice = test: Differential uptake and excretion pattern of isomers after injection of the diastereomeric mixture (radio-HPLC); type: in vivo; settings: blood, liver, kidney and tumor, 30 min p.i., n = 4
Method: With the intention to identify even marginal differences in the in vivo behavior, all four [^18F, ^natGa]rhPSMA-7 isomers were co-evaluated in one single tumor-bearing mouse in order to quantify the differential uptake and excretion pattern of each isomer. For this purpose, the diastereomeric mixture [^18F, ^natGa]rhPSMA-7 was produced in high molar activity (AM) of 247–349 GBq/µmol (at end of synthesis) and the abundance of each isomer was determined by radio-HPLC. Mice (n = 4) were injected with [^18F, ^natGa]rhPSMA-7 (180–280 MBq, 0.9–1.0 nmol) and left under anesthesia. After 30 min p.i., they were sacrificed and urine, blood, liver, kidneys and tumor were collected and processed. Radioactivity was extracted from solid tissues by means of a Potter–Elvehjem tissue grinder (n = 1) or a ball mill (n = 3) and separated from the protein fraction by subsequent cartridge-based solid-phase extraction (SPE). Blood samples were diluted, centrifuged and the supernatant was purified by SPE (see supporting information). Urine and extracts from tissue samples were then analyzed by radio-HPLC to quantify the fraction of each isomer in each sample. Finally, the relative percentage difference between the abundance of each isomer in the injected diastereomeric mixture (values taken from the quality control) and the abundance of the respective isomer in each analyzed tissue or body fluid was calculated. […] PeakFit allows for automated nonlinear separation, analysis and quantification of HPLC elution profiles by deconvolution procedures that uses a Gaussian response function with a Fourier deconvolution/filtering algorithm (see Additional file 1: Fig. 7).
Extraction via the Potter-Elvehjem Tissue Grinder. Tumor and kidneys were separately homogenized in the tissue homogeniser with 1 mL of extraction buffer (850 μL 1 M HEPES pH 7.4, 100 μL 20 mM PMPA and 100 μL 1 M NaCl) for 30 min. The resulting homogenate was collected and centrifuged at 13000×g for 5 min. Subsequently, the supernatant was collected, centrifuged again (13000×g, 5 min) and loaded on a Strata X cartridge (33 μm Polymeric Reversed Phase 500 mg) preconditioned with 5 mL MeOH, followed by 5 mL H2O. After washing with 5 mL H2O, the cartridge was eluted with a 3:2 mixture (v/v) of MeCN in H2O supplemented with 1% TFA. For radio-HPLC analysis the eluates were diluted with water.
Extraction via the MM-400 Ball Mill. The samples (tumor, kidney, liver) were separately homogenized in a 2 mL tube together with 3 grinding balls (3 mm diameter) and 1 mL of extraction buffer (850 μL 1 M HEPES pH 7.4, 100 μL 20 mM PMPA and 100 μL 1 M NaCl) for 10 min at 30 Hz. The homogenate was centrifuged at 13 000×g for 5 min and the supernatant was collected. […]

[1] = system: LNCaP tumor-bearing male CB-17 SCID mice; test: Biodistribution 1 h p.i.; type: in vivo
Method: (§2) LNCaP tumor xenografts were established in 6–8 weeks old male CB-17 SCID mice as described previously.
(§3) 1–3 MBq (0.2 nmol) of the [^18F, ^natGa]rhPSMA inhibitors were injected into the tail vein of LNCaP tumor-bearing male CB-17 SCID mice that were sacrificed 1 h post injection (p.i.) (n = 4 for 7.1, n = 5 for 7.2, n = 4 for 7.3, n = 5 for 7.4 and n = 3 for 7). Selected organs were removed, weighed, and measured in a γ-counter. For competition studies, 8 mg/kg of 2-PMPA (2-(Phosphonomethyl)-pentandioic acid) were co-administered (n = 3).

human serum albumin = target: T2, human serum albumin (Homo sapiens, UniProt P02768); test: Human serum albumin binding on Chiralpak HSA column; type: in vitro ADME
T2 construct: purchased
Method: Approximately 1 MBq of the ^18F-ligand was dissolved in 1 mL of a 1:1 mixture (v/v) of phosphate-buffered saline (PBS, pH 7.4) and n-octanol (n = 18–23). After vigorous mixing of the suspension for 3 min, the vial was centrifuged at 15,000 × g for 3 min and 100 μL aliquots of both layers were measured in a γ-counter. HSA binding of ^19F-^natGa-rhPSMA ligands was determined according to a previously published procedure.

[2] = system: LNCaP tumor-bearing male CB-17 SCID mice; test: Biodistribution 1 h p.i. with competition (co-injection of 2-PMPA); type: in vivo; settings: co-injected with 2-PMPA (8 mg/kg), n = 3
Method: as §2, §3

T2 sequence (P02768 25-609): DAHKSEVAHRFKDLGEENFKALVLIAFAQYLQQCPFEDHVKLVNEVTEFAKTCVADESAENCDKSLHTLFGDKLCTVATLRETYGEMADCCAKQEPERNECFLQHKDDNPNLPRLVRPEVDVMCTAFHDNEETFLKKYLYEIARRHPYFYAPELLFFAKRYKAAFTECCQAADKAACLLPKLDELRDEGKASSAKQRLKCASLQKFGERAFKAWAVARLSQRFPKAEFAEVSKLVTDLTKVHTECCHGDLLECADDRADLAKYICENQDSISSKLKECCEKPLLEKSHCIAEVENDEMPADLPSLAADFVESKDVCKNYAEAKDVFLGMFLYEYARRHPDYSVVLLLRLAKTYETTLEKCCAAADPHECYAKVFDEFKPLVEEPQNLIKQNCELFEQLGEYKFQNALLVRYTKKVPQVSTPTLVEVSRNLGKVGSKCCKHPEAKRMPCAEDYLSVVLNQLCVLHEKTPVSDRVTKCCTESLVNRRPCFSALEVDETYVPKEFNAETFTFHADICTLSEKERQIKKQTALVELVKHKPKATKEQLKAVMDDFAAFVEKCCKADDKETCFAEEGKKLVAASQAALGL
T1 sequence (Q04609 whole entry): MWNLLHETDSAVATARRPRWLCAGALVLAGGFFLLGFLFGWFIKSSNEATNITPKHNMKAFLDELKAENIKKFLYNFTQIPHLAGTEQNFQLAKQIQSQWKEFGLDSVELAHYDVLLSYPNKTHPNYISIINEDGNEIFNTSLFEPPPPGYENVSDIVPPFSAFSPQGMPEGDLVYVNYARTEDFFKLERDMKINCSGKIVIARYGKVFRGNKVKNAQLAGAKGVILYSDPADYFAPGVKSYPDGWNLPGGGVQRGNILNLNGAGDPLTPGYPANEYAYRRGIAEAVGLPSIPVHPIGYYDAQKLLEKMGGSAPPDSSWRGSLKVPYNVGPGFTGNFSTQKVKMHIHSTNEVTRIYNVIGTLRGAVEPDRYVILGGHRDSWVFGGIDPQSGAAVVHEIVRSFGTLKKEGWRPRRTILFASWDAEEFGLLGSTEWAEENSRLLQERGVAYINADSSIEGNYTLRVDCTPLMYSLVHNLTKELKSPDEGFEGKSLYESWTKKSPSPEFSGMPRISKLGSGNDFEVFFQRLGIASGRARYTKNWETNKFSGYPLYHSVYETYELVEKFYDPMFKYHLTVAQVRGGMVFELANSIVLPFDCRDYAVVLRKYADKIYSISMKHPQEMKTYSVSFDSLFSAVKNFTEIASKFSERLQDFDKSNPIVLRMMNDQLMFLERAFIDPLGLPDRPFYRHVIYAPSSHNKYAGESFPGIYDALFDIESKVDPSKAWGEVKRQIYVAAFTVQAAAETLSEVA

Biodistribution Adrenals [1]	Biodistribution Blood [1]	Biodistribution Bone [1]	Biodistribution Heart [1]	Biodistribution Intestine [1]	Biodistribution Kidneys [1]	Biodistribution Liver [1]	Biodistribution Lung [1]	Biodistribution Muscle [1]	Biodistribution Pancreas [1]	Biodistribution Spleen [1]	Biodistribution Stomach [1]	Biodistribution Tumor [1]	HSA-binding (human serum albumin)	Biodistribution Adrenals [2]	Biodistribution Blood [2]	Biodistribution Bone [2]	Biodistribution Heart [2]	Structure (SMILES)	Internalization (internalized activity) (LNCaP cells)	Abundance (enrichment) of the isomer in tissue compared to time point of injection (LNCaP tumor-bearing mice)	other results
2.0 ± 0.25 % ID/g	0.53 ± 0.13 % ID/g	0.50 ± 0.31 % ID/g	0.53 ± 0.03 % ID/g	0.30 ± 0.16 % ID/g	220 ± 24.8 % ID/g	0.75 ± 0.62 % ID/g	1.1 ± 0.21 % ID/g	0.32 ± 0.30 % ID/g	0.45 ± 0.12 % ID/g	20.0 ± 4.2 % ID/g	0.28 ± 0.17 % ID/g	14.1 ± 4.1 % ID/g	98%	0.003 ± 0.004 % ID/g	0.86 ± 0.40 % ID/g	0.33 ± 0.24 % ID/g	0.37 ± 0.16 % ID/g	CC(C)(C)[Si]([18F])(c1ccc(C(=O)NC[C@@H](NC(=O)CC[C@H](C(=O)O)N2CCN(CC(=O)[O-])CCN(CC(=O)[O-])CCN(CC(=O)[O-])CC2)C(=O)N[C@H](CCCCNC(=O)CCC(=O)NCCC[C@@H](NC(=O)CC[C@H](NC(=O)N[C@@H](CCC(=O)O)C(=O)O)C(=O)O)C(=O)O)C(=O)O)cc1)C(C)(C)C.[Ga+3] [[^18F, ^natGa]rhPSMA-7.1]	70 ± 5 % of reference	higher	Affinity fold higher than that of [19F]DCFPyL (PSMA): 1.8 fold; Biodistribution Intestine [2]: 0.66 ± 0.32 % ID/g; Biodistribution Kidneys [2]: 10.9 ± 2.5 % ID/g; Biodistribution Liver [2]: 0.43 ± 0.07 % ID/g; Biodistribution Lung [2]: 0.85 ± 0.29 % ID/g; Biodistribution Muscle [2]: 0.17 ± 0.15 % ID/g; Biodistribution Pancreas [2]: 0.16 ± 0.10 % ID/g; Biodistribution Spleen [2]: 0.21 ± 0.08 % ID/g; Biodistribution Stomach [2]: 0.97 ± 0.81 % ID/g; Biodistribution Tumor [2]: 0.94 ± 0.22 % ID/g
3.57 ± 2.38 % ID/g	1.15 ± 0.30 % ID/g	0.62 ± 0.30 % ID/g	0.71 ± 0.26 % ID/g	0.37 ± 0.09 % ID/g	153 ± 80.3 % ID/g	0.69 ± 0.20 % ID/g	1.59 ± 0.61 % ID/g	0.31 ± 0.08 % ID/g	0.50 ± 0.30 % ID/g	18.4 ± 9.77 % ID/g	0.25 ± 0.06 % ID/g	18.9 ± 3.27 % ID/g	97%	0.03 ± 0.04 % ID/g	0.82 ± 0.17 % ID/g	1.0 ± 0.8 % ID/g	0.37 ± 0.05 % ID/g	CC(C)(C)[Si]([18F])(c1ccc(C(=O)NC[C@H](NC(=O)CC[C@@H](C(=O)O)N2CCN(CC(=O)[O-])CCN(CC(=O)[O-])CCN(CC(=O)[O-])CC2)C(=O)N[C@H](CCCCNC(=O)CCC(=O)NCCC[C@@H](NC(=O)CC[C@H](NC(=O)N[C@@H](CCC(=O)O)C(=O)O)C(=O)O)C(=O)O)C(=O)O)cc1)C(C)(C)C.[Ga+3] [[^18F, ^natGa]rhPSMA-7.4]	207 ± 4 % of reference	lowest enrichment in blood, liver and kidney, but also the lowest uptake by tumors	Biodistribution Intestine [2]: 0.36 ± 0.08 % ID/g; Biodistribution Kidneys [2]: 7.2 ± 2.4 % ID/g; Biodistribution Liver [2]: 0.48 ± 0.14 % ID/g; Biodistribution Lung [2]: 0.74 ± 0.14 % ID/g; Biodistribution Muscle [2]: 0.20 ± 0.05 % ID/g; Biodistribution Pancreas [2]: 0.18 ± 0.09 % ID/g; Biodistribution Spleen [2]: 0.28 ± 0.15 % ID/g; Biodistribution Stomach [2]: 0.20 ± 0.07 % ID/g; Biodistribution Tumor [2]: 0.99 ± 0.19 % ID/g
